The values that follow are results of earlier work, collected in US9308243B2, “Cellular enhancements in biological systems through the use of li-pofullerene and peptide group combinations” (LivePet, LLC, priority 2014, dated 2016).

The structures appear in SMILES notation.

The subject of this data set is male flies. As to conditions: tiny amount added to food supply.

With `NCCC(=O)N[C@@H](Cc1c[nH]cn1)C(=O)O` [carnosine, L-Carnosine], the “increase in the average life span” value is 20%.
